Activity calls are given as the source filed them.
Experiments:
[1] = biological target: Glyceraldehyde-3-phosphate dehydrogenase (Homo sapiens, UniProt P04406)
[2] = biological target: T1, Replicative DNA helicase DnaB (Mycobacterium tuberculosis, UniProt P9WMR3); assay: DnaB intein splicing inhibitors, dose response, biochemical, cell-free fluorescence (AID 449749); type: functional
T1 sequence (P9WMR3 whole entry): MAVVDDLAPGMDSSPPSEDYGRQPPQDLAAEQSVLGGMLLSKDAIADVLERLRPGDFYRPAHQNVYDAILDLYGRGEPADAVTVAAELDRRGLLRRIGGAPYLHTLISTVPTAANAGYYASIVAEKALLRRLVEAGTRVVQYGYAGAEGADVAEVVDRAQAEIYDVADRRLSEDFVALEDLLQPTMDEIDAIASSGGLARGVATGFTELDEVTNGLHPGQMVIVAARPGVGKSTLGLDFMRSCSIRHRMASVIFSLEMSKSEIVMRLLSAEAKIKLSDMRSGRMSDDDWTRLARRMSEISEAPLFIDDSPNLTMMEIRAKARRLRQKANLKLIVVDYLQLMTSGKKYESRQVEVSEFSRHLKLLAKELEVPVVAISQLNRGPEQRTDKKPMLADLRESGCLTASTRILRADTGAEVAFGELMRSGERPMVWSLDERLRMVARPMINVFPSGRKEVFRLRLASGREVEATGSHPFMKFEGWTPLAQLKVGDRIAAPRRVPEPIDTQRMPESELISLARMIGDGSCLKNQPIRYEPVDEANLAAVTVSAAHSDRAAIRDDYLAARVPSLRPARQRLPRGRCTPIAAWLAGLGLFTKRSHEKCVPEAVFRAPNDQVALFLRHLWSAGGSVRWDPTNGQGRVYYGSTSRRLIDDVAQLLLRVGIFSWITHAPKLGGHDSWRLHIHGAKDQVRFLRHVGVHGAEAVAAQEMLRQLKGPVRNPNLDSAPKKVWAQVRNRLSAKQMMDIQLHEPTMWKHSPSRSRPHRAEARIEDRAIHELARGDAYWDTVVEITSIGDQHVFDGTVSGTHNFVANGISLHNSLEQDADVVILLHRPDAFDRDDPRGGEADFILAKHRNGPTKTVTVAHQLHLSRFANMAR

[3] = biological target: Heat shock cognate 71 kDa protein (Homo sapiens, UniProt P11142); assay: In Vitro Hsc70 Dose Response Fluorescence Polarization Assay. [Related pubchem assays: 1072 ]
Hexokinase HKDC1 = biological target: T2, Hexokinase HKDC1 (Homo sapiens, UniProt Q2TB90); assay: HKDC1 hexokinase inhibitors, dose response, biochemical, W721R variant (AID 504729); type: functional
T2 sequence (Q2TB90 whole entry): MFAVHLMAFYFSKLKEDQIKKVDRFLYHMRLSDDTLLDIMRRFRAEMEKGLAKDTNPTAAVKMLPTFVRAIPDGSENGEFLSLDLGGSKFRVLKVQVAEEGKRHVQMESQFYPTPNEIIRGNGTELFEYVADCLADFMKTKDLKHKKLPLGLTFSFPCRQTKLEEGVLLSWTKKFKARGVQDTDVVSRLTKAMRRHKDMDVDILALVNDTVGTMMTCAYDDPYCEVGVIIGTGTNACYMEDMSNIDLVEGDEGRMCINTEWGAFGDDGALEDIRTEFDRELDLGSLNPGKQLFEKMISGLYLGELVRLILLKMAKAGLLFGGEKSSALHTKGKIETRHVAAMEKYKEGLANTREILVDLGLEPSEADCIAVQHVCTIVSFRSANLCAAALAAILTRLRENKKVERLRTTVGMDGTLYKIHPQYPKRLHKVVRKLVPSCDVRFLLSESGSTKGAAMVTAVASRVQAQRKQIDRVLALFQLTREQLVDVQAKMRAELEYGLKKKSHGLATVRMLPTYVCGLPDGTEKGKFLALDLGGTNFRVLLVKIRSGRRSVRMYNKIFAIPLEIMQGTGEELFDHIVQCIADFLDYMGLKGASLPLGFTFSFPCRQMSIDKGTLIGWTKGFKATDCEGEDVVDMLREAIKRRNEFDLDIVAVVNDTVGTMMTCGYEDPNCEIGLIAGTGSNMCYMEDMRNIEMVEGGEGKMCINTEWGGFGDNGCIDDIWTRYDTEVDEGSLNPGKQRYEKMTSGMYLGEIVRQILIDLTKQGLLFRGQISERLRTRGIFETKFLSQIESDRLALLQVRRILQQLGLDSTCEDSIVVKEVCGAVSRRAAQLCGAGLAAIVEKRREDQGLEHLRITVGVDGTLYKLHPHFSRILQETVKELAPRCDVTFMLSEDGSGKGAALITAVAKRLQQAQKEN

[4] = inhibitors of SNCA 5'UTR-driven reporter translation, confirmation, H4 neuroglioma cells, luminescence (AID 1988); type: functional, cell-based
[5] = biological target: T3, Tyrosyl-DNA phosphodiesterase 2 (Homo sapiens, UniProt O95551); assay: human TDP2 enzyme inhibitors, dose response, biochemical, epi absorbance, IC50 (AID 743297)
T3 sequence (O95551 whole entry): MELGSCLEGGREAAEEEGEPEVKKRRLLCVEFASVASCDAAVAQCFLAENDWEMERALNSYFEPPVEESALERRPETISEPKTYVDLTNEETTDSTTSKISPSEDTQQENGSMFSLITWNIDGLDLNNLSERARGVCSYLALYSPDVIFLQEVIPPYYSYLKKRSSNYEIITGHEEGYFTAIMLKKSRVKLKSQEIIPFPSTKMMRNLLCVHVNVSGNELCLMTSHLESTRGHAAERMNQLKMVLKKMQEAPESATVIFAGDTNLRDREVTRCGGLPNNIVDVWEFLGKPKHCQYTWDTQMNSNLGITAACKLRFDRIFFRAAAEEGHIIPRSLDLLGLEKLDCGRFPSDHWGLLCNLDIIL

[6] = biological target: Tyrosine-protein kinase BTK (Homo sapiens, UniProt Q06187); type: functional
[7] = biological target: Casein kinase I isoform gamma-1 (Homo sapiens, UniProt Q9HCP0); type: functional;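 also: measured as the CSNK1G1 member of a kinome profiling panel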
[8] = biological target: Tyrosine-protein kinase JAK3 (Homo sapiens, UniProt P52333); type: functional
[9] = biological target: Tyrosine-protein kinase JAK2 (Homo sapiens, UniProt O60674); type: functional;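 also: JAK2 tested as one member of a kinase panel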
[10] = biological target: Cyclin-dependent kinase 9 (Homo sapiens, UniProt P50750); type: functional;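 also: value from the CDK9 entry of a kinome-spanning kinase panel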
[11] = biological target: RAC-gamma serine/threonine-protein kinase (Homo sapiens, UniProt Q9Y243); type: functional
[12] = biological target: Protein-tyrosine kinase 2-beta (Homo sapiens, UniProt Q14289); type: functional
[13] = biological target: Ribosomal protein S6 kinase alpha-5 (Homo sapiens, UniProt O75582); type: functional
[14] = biological target: Heat shock protein HSP 90-alpha (Homo sapiens, UniProt P07900); type: functional, organism-based

Chain of RAC-gamma serine/threonine-protein kinase (Q9Y243 whole entry): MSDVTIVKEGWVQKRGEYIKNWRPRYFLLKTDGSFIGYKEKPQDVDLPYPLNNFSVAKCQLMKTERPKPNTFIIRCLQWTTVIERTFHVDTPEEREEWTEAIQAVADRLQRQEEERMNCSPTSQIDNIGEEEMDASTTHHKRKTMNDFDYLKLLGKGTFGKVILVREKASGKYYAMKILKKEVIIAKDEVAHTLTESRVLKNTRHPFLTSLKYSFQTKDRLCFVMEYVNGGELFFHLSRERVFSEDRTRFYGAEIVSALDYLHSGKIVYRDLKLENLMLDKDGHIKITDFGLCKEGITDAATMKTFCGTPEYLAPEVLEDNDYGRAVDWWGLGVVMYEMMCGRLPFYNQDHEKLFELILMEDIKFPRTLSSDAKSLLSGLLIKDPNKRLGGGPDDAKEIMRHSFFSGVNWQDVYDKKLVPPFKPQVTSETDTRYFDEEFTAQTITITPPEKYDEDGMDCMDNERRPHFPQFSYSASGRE
Chain of Cyclin-dependent kinase 9 (P50750 whole entry): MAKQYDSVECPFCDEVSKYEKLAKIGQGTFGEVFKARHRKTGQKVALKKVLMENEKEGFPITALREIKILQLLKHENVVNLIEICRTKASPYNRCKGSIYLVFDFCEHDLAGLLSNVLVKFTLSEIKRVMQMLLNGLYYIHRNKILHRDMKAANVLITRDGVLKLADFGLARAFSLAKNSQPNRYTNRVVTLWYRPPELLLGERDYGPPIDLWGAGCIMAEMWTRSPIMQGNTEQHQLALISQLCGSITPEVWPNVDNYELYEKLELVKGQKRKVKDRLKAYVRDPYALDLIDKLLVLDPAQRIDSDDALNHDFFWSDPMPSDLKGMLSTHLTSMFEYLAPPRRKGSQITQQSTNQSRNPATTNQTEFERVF
Chain of Heat shock cognate 71 kDa protein (P11142 whole entry): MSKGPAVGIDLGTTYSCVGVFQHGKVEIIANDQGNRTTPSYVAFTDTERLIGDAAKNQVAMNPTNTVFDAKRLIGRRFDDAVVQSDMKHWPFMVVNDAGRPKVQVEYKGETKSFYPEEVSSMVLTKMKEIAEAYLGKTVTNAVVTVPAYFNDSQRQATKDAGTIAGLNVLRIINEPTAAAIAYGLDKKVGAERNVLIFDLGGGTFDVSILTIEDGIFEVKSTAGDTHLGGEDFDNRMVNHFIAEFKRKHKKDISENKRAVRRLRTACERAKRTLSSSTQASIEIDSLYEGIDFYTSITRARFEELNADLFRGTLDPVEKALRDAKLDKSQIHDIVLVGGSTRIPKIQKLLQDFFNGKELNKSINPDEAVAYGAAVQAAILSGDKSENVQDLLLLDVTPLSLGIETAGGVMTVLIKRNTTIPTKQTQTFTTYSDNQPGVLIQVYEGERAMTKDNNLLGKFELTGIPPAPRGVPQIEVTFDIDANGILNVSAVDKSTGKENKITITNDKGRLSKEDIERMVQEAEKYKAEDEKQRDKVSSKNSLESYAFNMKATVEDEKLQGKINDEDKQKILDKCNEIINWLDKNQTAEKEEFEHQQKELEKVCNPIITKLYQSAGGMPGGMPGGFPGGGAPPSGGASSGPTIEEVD
Chain of Tyrosine-protein kinase JAK2 (O60674 whole entry): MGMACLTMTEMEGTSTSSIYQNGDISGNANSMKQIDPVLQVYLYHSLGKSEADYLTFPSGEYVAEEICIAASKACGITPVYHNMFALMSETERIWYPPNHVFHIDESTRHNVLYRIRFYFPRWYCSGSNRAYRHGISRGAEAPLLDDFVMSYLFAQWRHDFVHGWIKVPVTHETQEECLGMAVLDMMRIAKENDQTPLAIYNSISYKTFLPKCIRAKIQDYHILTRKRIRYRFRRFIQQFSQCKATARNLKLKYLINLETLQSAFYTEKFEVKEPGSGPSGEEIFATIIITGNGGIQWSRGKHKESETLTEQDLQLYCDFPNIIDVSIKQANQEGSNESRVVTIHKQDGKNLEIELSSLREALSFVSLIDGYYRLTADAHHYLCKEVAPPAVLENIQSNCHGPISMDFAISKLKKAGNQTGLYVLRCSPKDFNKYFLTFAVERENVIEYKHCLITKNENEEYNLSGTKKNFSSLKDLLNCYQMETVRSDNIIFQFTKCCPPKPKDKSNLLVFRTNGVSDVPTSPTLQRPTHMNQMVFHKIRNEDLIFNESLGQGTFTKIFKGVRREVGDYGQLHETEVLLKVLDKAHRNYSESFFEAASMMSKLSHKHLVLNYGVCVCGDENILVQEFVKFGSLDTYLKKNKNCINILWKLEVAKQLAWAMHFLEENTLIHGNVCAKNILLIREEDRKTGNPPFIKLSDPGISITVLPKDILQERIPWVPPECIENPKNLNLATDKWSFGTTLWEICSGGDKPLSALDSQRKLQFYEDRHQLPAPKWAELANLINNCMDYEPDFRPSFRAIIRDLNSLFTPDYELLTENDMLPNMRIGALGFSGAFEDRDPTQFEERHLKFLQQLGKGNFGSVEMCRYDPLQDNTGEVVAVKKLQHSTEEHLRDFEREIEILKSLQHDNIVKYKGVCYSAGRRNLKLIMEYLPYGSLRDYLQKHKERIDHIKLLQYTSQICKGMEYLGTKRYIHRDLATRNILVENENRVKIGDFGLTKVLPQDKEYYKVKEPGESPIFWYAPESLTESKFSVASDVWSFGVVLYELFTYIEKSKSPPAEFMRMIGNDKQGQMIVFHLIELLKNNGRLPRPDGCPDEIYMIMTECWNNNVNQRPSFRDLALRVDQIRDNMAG
Chain of Tyrosine-protein kinase BTK (Q06187 whole entry, canonical isoform): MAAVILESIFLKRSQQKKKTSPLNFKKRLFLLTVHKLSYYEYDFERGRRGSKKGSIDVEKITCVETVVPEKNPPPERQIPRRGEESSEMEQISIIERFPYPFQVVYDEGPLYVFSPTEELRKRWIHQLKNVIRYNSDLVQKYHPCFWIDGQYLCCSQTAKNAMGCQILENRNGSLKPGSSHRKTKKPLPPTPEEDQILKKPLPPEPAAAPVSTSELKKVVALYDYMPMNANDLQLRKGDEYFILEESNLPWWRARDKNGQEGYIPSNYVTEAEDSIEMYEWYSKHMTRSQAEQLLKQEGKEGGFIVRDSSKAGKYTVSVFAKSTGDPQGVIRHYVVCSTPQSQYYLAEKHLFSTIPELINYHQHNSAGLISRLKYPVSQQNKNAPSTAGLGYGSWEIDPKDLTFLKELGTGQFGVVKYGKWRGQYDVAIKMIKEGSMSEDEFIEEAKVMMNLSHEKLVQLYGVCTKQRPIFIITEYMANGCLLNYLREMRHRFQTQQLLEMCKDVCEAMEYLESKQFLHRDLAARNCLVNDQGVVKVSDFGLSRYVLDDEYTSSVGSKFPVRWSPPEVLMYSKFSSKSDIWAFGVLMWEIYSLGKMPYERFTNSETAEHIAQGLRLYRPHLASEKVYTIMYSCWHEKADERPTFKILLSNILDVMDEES
Chain of Tyrosine-protein kinase JAK3 (P52333 whole entry): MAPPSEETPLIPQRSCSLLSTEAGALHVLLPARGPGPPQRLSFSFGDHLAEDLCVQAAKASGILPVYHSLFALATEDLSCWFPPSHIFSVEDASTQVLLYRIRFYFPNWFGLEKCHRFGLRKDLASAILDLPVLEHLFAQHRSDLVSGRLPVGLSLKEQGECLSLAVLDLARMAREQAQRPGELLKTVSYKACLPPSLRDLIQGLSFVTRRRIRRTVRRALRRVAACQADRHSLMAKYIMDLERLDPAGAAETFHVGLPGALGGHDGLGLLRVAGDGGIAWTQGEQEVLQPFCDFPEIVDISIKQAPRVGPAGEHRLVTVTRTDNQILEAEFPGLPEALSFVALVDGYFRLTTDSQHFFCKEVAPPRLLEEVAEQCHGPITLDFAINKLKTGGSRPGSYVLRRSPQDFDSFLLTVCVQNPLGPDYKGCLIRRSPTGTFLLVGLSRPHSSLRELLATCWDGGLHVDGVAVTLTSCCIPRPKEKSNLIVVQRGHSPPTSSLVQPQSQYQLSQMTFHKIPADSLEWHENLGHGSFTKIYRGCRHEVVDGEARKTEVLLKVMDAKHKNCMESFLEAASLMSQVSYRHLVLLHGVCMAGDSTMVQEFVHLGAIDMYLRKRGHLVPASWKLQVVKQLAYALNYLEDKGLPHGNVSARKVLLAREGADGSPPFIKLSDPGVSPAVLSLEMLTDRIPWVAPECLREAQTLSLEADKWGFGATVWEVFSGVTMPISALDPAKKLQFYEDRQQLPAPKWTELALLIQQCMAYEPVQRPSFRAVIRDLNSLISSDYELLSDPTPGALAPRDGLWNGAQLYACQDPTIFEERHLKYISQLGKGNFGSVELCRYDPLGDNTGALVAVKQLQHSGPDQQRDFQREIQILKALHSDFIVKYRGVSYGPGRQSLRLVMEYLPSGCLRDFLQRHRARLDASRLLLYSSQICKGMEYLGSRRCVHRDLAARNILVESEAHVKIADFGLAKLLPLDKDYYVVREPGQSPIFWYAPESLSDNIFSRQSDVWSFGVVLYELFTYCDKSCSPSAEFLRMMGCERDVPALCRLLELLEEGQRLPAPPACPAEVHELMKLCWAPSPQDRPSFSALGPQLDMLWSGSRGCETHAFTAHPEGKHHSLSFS
Chain of Casein kinase I isoform gamma-1 (Q9HCP0 whole entry, canonical isoform): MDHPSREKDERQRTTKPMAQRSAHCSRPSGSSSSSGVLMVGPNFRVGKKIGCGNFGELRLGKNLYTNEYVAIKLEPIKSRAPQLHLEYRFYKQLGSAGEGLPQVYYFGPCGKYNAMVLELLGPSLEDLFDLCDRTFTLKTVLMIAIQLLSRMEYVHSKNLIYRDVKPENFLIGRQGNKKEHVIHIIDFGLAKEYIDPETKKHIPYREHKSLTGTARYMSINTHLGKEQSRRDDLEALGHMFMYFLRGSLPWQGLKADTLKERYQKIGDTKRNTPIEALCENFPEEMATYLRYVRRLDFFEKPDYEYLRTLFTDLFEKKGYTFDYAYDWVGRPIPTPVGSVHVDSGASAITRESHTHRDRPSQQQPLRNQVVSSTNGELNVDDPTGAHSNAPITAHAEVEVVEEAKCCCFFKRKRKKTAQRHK

SMILES: O=C(O)C1Nc2c(O)cc(Cl)c([N+](=O)[O-])c2C2C=CCC12 (configuration not stated)
- IC50 [1]: 37.8 µM (active)
- AC50 [2]: 12.8 µM (active)
- IC50 [3]: 175 µM (active)

SMILES: O=C1C=C(N2CCCCC2)c2ccccc2C1=O
- IC50 (Hexokinase HKDC1): 1.34 µM (active)
- EC50 [4]: 9.02 µM (active)
- IC50 [5]: 5.32 µM (active)

SMILES: O=C(CCc1ccccc1)NNc1cc(N2CCCCC2)nc(N2CCCCC2)n1
- EC50 [4]: > 120 µM (not active)

SMILES: Cc1n[nH]c2ccc(-c3cncc(OCC(N)Cc4cccc(Cl)c4)c3)cc12 (configuration not stated)
- Ki [6]: > 1.26 µM (inactive)
- Ki [7]: 0.0794 µM (active)
- Ki [8]: 0.794 µM (active)
- Ki [9]: 1.26 µM (active)
- Ki [10]: 0.0631 µM (active)
- pKi [10]: 7.2
- Ki [11]: 0.00501 µM (active)
- pKi [11]: 8.3
- Ki [12]: 0.501 µM (active)
- Ki [13]: 0.00501 µM (active)

SMILES: Clc1ccc2nc(-c3ccc(Br)s3)cn2c1
- EC50 (cells): > 67.5 µM (inactive)

SMILES: CC(=O)NC1C(=O)N(CCN2CCOCC2)c2ccc(F)cc21 (configuration not stated)
- IC50 (Hexokinase HKDC1): 9.43 µM (active)
- AC50 [2]: 12.3 µM (active)
- IC50 [5]: 33.4 µM (inactive)

SMILES: Oc1ccc(N=Nc2c(O)ccc3ccccc23)cc1
- AC50 [14]: 5.61 µM (active)
